The values below come from patent publication EP0443559A2, “HIV protease inhibiting agents” (BIO-MEGA/BOEHRINGER INGELHEIM RESEARCH INC., priority 1990, dated 1991).

Each structure is given as a SMILES string.

Assay [1] deals with HIV protease (Human immunodeficiency virus type 1 group M subtype B, UniProt P04585). As to the kind of experiment: biochemical. An excerpt: The procedure is based on the capacity of the test compound to inhibit enzymatic cleavage by HIV protease of a decapeptide (the substrate) having an amino acid sequence which includes a known HIV protease cleavage site of a HIV polyprotein; see H.G. Krausslich et al., Proc. Natl. Acad. Sci. USA, 86,807(1989).
Recombinant HIV Protease HPLC Assay: Enzyme: HIV protease was expressed in E. coli [construct pBRT1 prt⁺, see W.G. Farmerie et al., Science, 236, 305 (1987)], according to the following protocol: Unless stated otherwise, all solutions are aqueous solutions.
E. coli cells containing the pBRT1 prt⁺ plasmid were used to inoculate a seed culture media composed of Luria-Bertani Broth containing 100µg/mL of ampicillin. Flasks were incubated at 37° under agitation for 17 h. Production flasks containing sterile M9 broth, supplemented with 100µg/ml of ampicillin, were inoculated at a level of 1% (v/v) using the seed culture described above. Total volume in each production flask was 500 mL in a 2 L Erlenmeyer flask. Flasks were incubated at 37° under agitation until a cell concentration corresponding to an optical density (λ= 540 m) of 0.6 was reached (no dilution). This time span was routinely 3-4 h. Flasks were then supplemented with 5mM isopropylthiogalactoside (IPTG, Research Organics, Cleveland, Ohio, USA) and incubation was continued until the cell concentration reached an optical density of 0.2 at 16-fold dilution. Flasks were then supplemented with 1mM phenylmethylsulfonyl fluoride (PMSF) and rapidly chilled to 4°. The bacterial cells were recovered by centrifugation at 4°. The wet pellet was stored at -70°.
All steps below were performed at 4° unless otherwise indicated. Thawed cells were mixed with buffer A [50 mM […] HCl(Tris-HCl, pH 7.4); 0.6 mM ethylenediaminetetraacetic acid (EDTA); 0.375 M NaCl, 0.2% Nonidet P-40 ^R (BDH Chemicals Ltd., Poole, UK); 1mM PMSF], at a ratio of one part cells to nine parts buffer A. Diatomaceous earth (Celite 545 ^R , John Manville, Lompoc, CA, USA) was added at a ratio of two parts to one part of wet cell weight. The resulting slurry was homogenized at high speed (ca. 20,000 rpm) on a Waring ^R industrial blender for 8 x 15 sec. pulses. Cell debris/Celite ^R was collected by centrifugation and the resulting pellet was extracted with 4.5 parts of buffer A to one part wet solids using the homogenization procedure described above. Supernatants from both homogenization steps were combined and soluble protein was precipitated by the addition of solid (NH₄)₂SO₄ to yield a final concentration of 75% saturation. This mixture was agitated for 60 min and the precipitate was recovered by centrifugation. The resulting pellet was suspended in buffer B [50mM Tris-HCl, pH 8; 30 mM NaCl; 1 mM DL-dithio-threitol (DTT); 1 mM EDTA; 1 mM PMSF; 10% glycerol], and dialyzed for 18h against the same buffer.
An aliquot of the dialyzed extract containing 150 mg of the protein was loaded onto a Sephadex A25 ^R anion exchange column. (Pharmacia, Uppsala, Sweden) with bed dimensions of 70 cm length and 2.5 cm diameter. The sample was eluted isocratically with buffer B at a linear flow rate of 10 cm/h. Fractions containing HIV protease activity (see below for assay description) were combined, and soluble protein was precipitated by the addition of saturated aqueous (NH₄)₂SO₄ to yield a total (NH₄)₂SO₄ concentration of 85% saturation. Precipitated protein was removed by centrifugation and the resulting pellet was dissolved in buffer C [50 mM 2-(4-morpholino)ethanesulfonic acid (MES), pH 5.5; 150 mM NaCl; 1 mM DTT; 1 mM EDTA; 10% glycerol]. This preparation was dialyzed for 18h against buffer C, and then frozen at -70°. All crude extracts were purified by chromatography in aliquots containing 150 mg of protein in the same manner as described above. The final preparations from each batch were pooled, divided into 34µL aliquots and stored at -70°.

In assay [2] the test system is HIV. The following applies: at 20µg/mL; C8166 cells, H9/HTLV-IIIB, 72 h.
Description: The following protocol, used for screening antiviral effects of the compounds of formula 1, is adapted from a plaque assay utilizing HTLV-I transformed cells which was developed by Harada et al., supra. HTLV-I transformed cells are used in these assays because of the rapidity with which HIV will replicate in these cells. • 1. The test compound is dissolved in dimethylsulfoxide to a concentration of 5 mg/mL. The resultant solution can be stored at 4° until used. • 2. The resultant solution is diluted in RPMI 1640 (Gibco Laboratories, St. Lawrence, MA, USA) to four times (4x) the final concentration which is to be tested. Once diluted in RPMI 1640, the solution is used in the cell culture assay within 4 h. • 3. The 4x solution (50µL) is added to triplicate wells of a 96 well flat bottomed microtiter plate. RPMI 50µL also is added to control wells. • 4. C8166 cells (5 x 10⁻⁴) in 50 µL of HEPES-buffered RPMI 1640, 10% heat inactivated fetal calf serum (FCS), 12.5µL/ml gentamicin (complete media) are added to all wells. • 5. […] Infectious titer of virus stocks are as previously determined by end point dilution on C8166 cells. […] Plates are then removed and centers of syncytia are counted in each well by low power phase contrast light microscopy. […] Percent inhibition of syncytia formation is calculated by the formula: [formula]

`CC[C@H](C)[C@H](NC(=O)[C@H](CCC(N)=O)NC(=O)[C@H](CC(C)(C)C)NC[C@H](Cc1ccccc1)NC(=O)[C@@H](NC(C)=O)C(C)C)C(N)=O` [Example 21, Ac-Val-Pheψ[CH₂NH]Tba-Gln-Ile-NH₂]: in assay [1], the IC50 is 720 nM. On the same count and under the same terms, the result for `CC(=O)N[C@H](C(=O)N[C@H](CN[C@@H](CC(C)C)C(=O)N[C@H](C(=O)N[C@@H](COCc1ccccc1)C(N)=O)C(C)C)Cc1ccccc1)C(C)C` [Example 22, Ac-Val-Pheψ[CH₂NH]Leu-Val-Ser(OBzl)-NH₂] reads 29 nM; that for `CC[C@H](C)[C@H](NC(=O)[C@H](CCC(N)=O)NC(=O)[C@H](CC(C)C)NC[C@H](Cc1ccccc1)NC(=O)[C@@H](NC(C)=O)[C@@H](C)CC)C(N)=O` [Example 16, Ac-Ile-Pheψ[CH₂NH]Leu-Gln-Ile-NH₂], 180 nM; that for `CC[C@H](C)[C@H](NC(=O)[C@H](CCC(=O)O)NC(=O)[C@H](CC(C)C)NC[C@H](Cc1ccccc1)NC(=O)[C@@H](NC(C)=O)C(C)C)C(N)=O` [Example 12, Ac-Val-Pheψ[CH₂NH]Leu-Glu-Ile-NH₂], 6.7 nM. As to `CC(=O)N[C@H](C(=O)N[C@@H](CC1CCCCC1)[C@@H](O)CC(=O)N[C@@H](CC(C)C)C(=O)N[C@@H](Cc1ccccc1)C(N)=O)C(C)C` [Example 5, Ac-Val-ACHPA-Leu-Phe-NH₂], in assay [1], the 50% inhibitory concentration (IC50) turned out to be 280 nM. Moreover, the “inhibition of syncytia formation” value in assay [2] is 97%. `CC(C)C[C@H](NC(=O)C[C@H](O)[C@H](CC1CCCCC1)NC(=O)[C@@H](NC(=O)[C@@H](O)CO)C(C)C)C(=O)N[C@@H](Cc1ccccc1)C(N)=O` [Example 4, [(S)-HOCH₂CH(OH)C(O)]-Val-ACHPA-Leu-Phe-NH₂] gave an IC50 in assay [1] of 180 nM. Take `CC(=O)N[C@H](C(=O)N[C@@H](CC1CCCCC1)[C@@H](O)CC(=O)N[C@@H](CC(C)C)C(=O)N[C@@H](Cc1ccccc1)C(N)=O)C(C)(C)C` [Example 11, Ac-Tbg-ACHPA-Leu-Phe-NH₂]: the IC50 in assay [1] worked out at 200 nM. Also, the “inhibition of syncytia formation” value in assay [2] stood at 72%. For `CC(C)C[C@H](NC(=O)C[C@H](O)[C@H](CC1CCCCC1)NC(=O)[C@@H](NC(=O)CCc1ccc(OCC(=O)OCc2ccccc2)cc1)C(C)C)C(=O)N[C@@H](Cc1ccccc1)C(N)=O` [Example 2, [4-(BzlOC(O)CH₂O)Ph]CH₂CH₂C(O)-Val-ACHPA-Leu-Phe-NH₂], the IC50 in assay [1] came to 170 nM.

The molecule `CC[C@H](C)[C@H](NC(=O)[C@H](CCC(N)=O)NC(=O)[C@H](CC(C)C)NC[C@H](Cc1ccccc1)NC(=O)[C@@H](NC(=O)[C@H](C)O)C(C)C)C(N)=O` [Example 19, [(S)-CH₃CH(OH)C(O)]-Val-Pheψ[CH₂NH]Leu-Gln-Ile-NH₂] gave an IC50 in assay [1] of 660 nM.

For orientation: IC50 means the point on the concentration scale where inhibition reaches its midpoint.
